Assay results: patent publication US12409206B2, “Use of cyclosporine analogues for treating fibrosis” (Hepion Pharmaceuticals, Inc., priority 2020, dated 2025)
Read-outs that look alike come from different tables or passages of the source.

Key:
[1] = system: human precision cut liver slices (PCLS); assay: PCLS RNA-Seq, Stimulation Protocol: TGFb/PDGF+CRV vs TGFb/PDGF+Vehicle; assay type: cell-based; details: for fold change in RNA: presence of exogenous TGFβ+PDGF-BB, universal in all donors
Experimental: PCLS were obtained from 5 human donors who underwent resection of liver cancer. Replicate slices were collected from healthy margins of the resections and cultured for 4 or 6 days depending on the experimental protocol. In the Nonstimulation Protocol slices were cultured for 6 days and treated for the entire period with DMSO vehicle or 5 μM CRV431. In the Stimulation Protocol slices were rested for 1 day and then administered the cytokines, TGFβ and PDGF-BB, for 3 days to stimulate inflammation and fibrosis. DMSO vehicle, CRV431 (1 and 5 μM), Alk5i (10 μM), obeticholic acid (5 μM), elafibranor (5 μM), resmetirom ([…]), and Aramchol (5 μM) were administered individually as drug treatments in the Stimulation Protocol concurrent with TGFβ+PDGF-BB. Culture medium treatments were replaced daily.
Four types of evaluations were conducted on the PCLS: (a) secretion of inflammation and fibrosis biomarkers into the culture medium, (b) histological staining and quantitation of Sirius red as a measure of tissue fibrosis, (c) gene expression of inflammation and fibrosis biomarkers by RT-PCR, and (d) RNA sequencing (RNA-Seq) of the complete transcriptome. Each of the four types of evaluation is described below: • (a) Biomarker secretion. Spent culture medium was collected daily from duplicate slices for each treatment. ELISAs were used to quantify secretion of monocyte chemoattractant protein (MCP-1), interleukin-6 (IL-6), tissue inhibitor of metalloproteinase-1 (TIMP1), hyaluronic acid, fibronectin, and collagen 1α1. For each donor the mean level of biomarker secretion in each treatment group was expressed as a percentage change relative to DMSO vehicle, the percentages averaged for all donors, and finally the mean daily percentage change calculated from all days of evaluation. Results are shown in FIG. 8A (secreted markers-% daily average change). • (b) Sirius red histological staining. […] Sirius red was quantified morphometrically in the histological sections as the percentage area with Sirius red staining in 10 sections from each treatment. In the Nonstimulation Protocol the quantity of Sirius red staining was expressed relative to the vehicle group. In the Stimulation Protocol the quantity of Sirius red staining was expressed relative to nonstimulated PCLS (0%) and TGFβ+PDGF-BB-stimulated+vehicle PCLS (100%). Results are shown in FIG. 8B (Sirius red staining for tissue fibrosis). • (c) Gene expression by RT-PCR. RNA was isolated from duplicate liver slices per treatment at the end of the experiments and evaluated by RT-PCR for 5 markers of inflammation and fibrosis: MCP-1, IL-6, TIMP1, αSMA, and collagen 1α1. β actin was used as a reference gene to calculate relative levels of each target gene RNA. […] Results are shown in FIG. 8C (gene expression by RT-PCR). • (d) Gene expression by RNA-Seq. RNA sequencing of the complete transcriptome (30 million reads per sample) was conducted on vehicle and 5 μM CRV431 treatment groups from 3 donors both from the Nonstimulation and Stimulation Protocols. Data were analyzed by bioinformatics software programs to identify genes that were differentially expressed between vehicle and CRV431 treatments.
For the evaluation done for (d), 12 samples corresponding to 3 different donor slides which underwent 4 different treatments were studied. the comparisons carried out in this analysis are: (1) TGFb/PDGF+CRV vs TGFb/PDGF+Vehicle (V), and (2) Non-stimulated+CRV vs Non-stimulated+Vehicle. […] Table 1. Samples for evaluation (d)
Quality Control check was performed in all samples. All samples had more than 30 million reads and a quality score average >35 for almost all the bases in the sequences. The duplication levels are expected as it is RNA sequencing, and different copies of the same RNA are expected to be present in the samples. All samples had good amount of reads and quality, therefore all samples passed the QC checked and were included in the analysis. […]

[2] = system: experimental models of NASH; details: cited from earlier work

CC[C@@H]1NC(=O)[C@H]([C@H](O)[C@H](C)CCCCCCNC(C)=O)N(C)C(=O)[C@H](C(C)C)N(C)C(=O)[C@H](CC(C)C)N(C)C(=O)[C@H](CC(C)C)N(C)C(=O)[C@@H](C)NC(=O)[C@H](C)NC(=O)[C@H](CC(C)C)N(C)C(=O)[C@H](C(C)C)NC(=O)[C@H](CC(C)C)N(C)C(=O)[C@@H](C)N(C)C1=O [CRV431]
log2FoldChange [1]: 1.025 | log2FoldChange ([1]; gene AC009053.1, TGFb/PDGF+CRV vs TGFb/PDGF+Vehicle): 1.194 | log2FoldChange ([1]; gene AC134772.2, TGFb/PDGF+CRV vs TGFb/PDGF+Vehicle): −4.561 | log2FoldChange ([1]; gene ADH1B, TGFb/PDGF+CRV vs TGFb/PDGF+Vehicle): 2.156 | log2FoldChange ([1]; gene ADH1C, TGFb/PDGF+CRV vs TGFb/PDGF+Vehicle): 1.869 | log2FoldChange ([1]; gene ADH4, TGFb/PDGF+CRV vs TGFb/PDGF+Vehicle): 2.123 | log2FoldChange ([1]; gene ADH6, TGFb/PDGF+CRV vs TGFb/PDGF+Vehicle): 1.903 | log2FoldChange ([1]; gene ADIRF, TGFb/PDGF+CRV vs TGFb/PDGF+Vehicle): 1.402 | log2FoldChange ([1]; gene APLNR, TGFb/PDGF+CRV vs TGFb/PDGF+Vehicle): 0.844 | log2FoldChange ([1]; gene ASPG, TGFb/PDGF+CRV vs TGFb/PDGF+Vehicle): 0.91 | log2FoldChange ([1]; gene ATP13A4, TGFb/PDGF+CRV vs TGFb/PDGF+Vehicle): −3.082 | log2FoldChange ([1]; gene C7, TGFb/PDGF+CRV vs TGFb/PDGF+Vehicle): 0.739 | log2FoldChange ([1]; gene CA11, TGFb/PDGF+CRV vs TGFb/PDGF+Vehicle): −1.573 | log2FoldChange ([1]; gene CBFA2T2, TGFb/PDGF+CRV vs TGFb/PDGF+Vehicle): 1.299 | log2FoldChange ([1]; gene CD93, TGFb/PDGF+CRV vs TGFb/PDGF+Vehicle): −0.613 | log2FoldChange ([1]; gene CHST1, TGFb/PDGF+CRV vs TGFb/PDGF+Vehicle): −1.087 | log2FoldChange ([1]; gene COL5A3, TGFb/PDGF+CRV vs TGFb/PDGF+Vehicle): −0.842 | log2FoldChange ([1]; gene CXADR, TGFb/PDGF+CRV vs TGFb/PDGF+Vehicle): 1.61 | log2FoldChange ([1]; gene CYP4A11, TGFb/PDGF+CRV vs TGFb/PDGF+Vehicle): 1.611 | log2FoldChange ([1]; gene CYP26A1, TGFb/PDGF+CRV vs TGFb/PDGF+Vehicle): −1.283 | log2FoldChange ([1]; gene CYP26B1, TGFb/PDGF+CRV vs TGFb/PDGF+Vehicle): −0.656 | log2FoldChange ([1]; gene DCHS1, TGFb/PDGF+CRV vs TGFb/PDGF+Vehicle): −0.686 | log2FoldChange ([1]; gene DLL4, TGFb/PDGF+CRV vs TGFb/PDGF+Vehicle): −0.69 | log2FoldChange ([1]; gene DUOX2, TGFb/PDGF+CRV vs TGFb/PDGF+Vehicle): −2.182 | fold change in RNA ([1]; gene DUOX2): −4.5 fold | log2FoldChange ([1]; gene DVL1, TGFb/PDGF+CRV vs TGFb/PDGF+Vehicle): 0.635 | log2FoldChange ([1]; gene ENSG00000283623 (symbol NA), TGFb/PDGF+CRV vs TGFb/PDGF+Vehicle): −5.759 | log2FoldChange ([1]; gene ERVK13-1, TGFb/PDGF+CRV vs TGFb/PDGF+Vehicle): −1.125 | log2FoldChange ([1]; gene ESAM, TGFb/PDGF+CRV vs TGFb/PDGF+Vehicle): −0.573 | log2FoldChange ([1]; gene ESM1, TGFb/PDGF+CRV vs TGFb/PDGF+Vehicle): −1.401 | fold change in RNA ([1]; gene ESMI): −2.6 fold | log2FoldChange ([1]; gene ESR1, TGFb/PDGF+CRV vs TGFb/PDGF+Vehicle): 3.688 | log2FoldChange ([1]; gene F2RL3, TGFb/PDGF+CRV vs TGFb/PDGF+Vehicle): −0.711 | log2FoldChange ([1]; gene GLYATL1, TGFb/PDGF+CRV vs TGFb/PDGF+Vehicle): 1.438 | log2FoldChange ([1]; gene GPR4, TGFb/PDGF+CRV vs TGFb/PDGF+Vehicle): −0.9 | log2FoldChange ([1]; gene GRAP, TGFb/PDGF+CRV vs TGFb/PDGF+Vehicle): −0.772 | log2FoldChange ([1]; gene HIST2H2AA4, TGFb/PDGF+CRV vs TGFb/PDGF+Vehicle): −7.504 | log2FoldChange ([1]; gene IGHV4-61, TGFb/PDGF+CRV vs TGFb/PDGF+Vehicle): 7.957 | log2FoldChange ([1]; gene IGLON5, TGFb/PDGF+CRV vs TGFb/PDGF+Vehicle): −0.851 | log2FoldChange ([1]; gene ISLR2, TGFb/PDGF+CRV vs TGFb/PDGF+Vehicle): −1.27 | log2FoldChange ([1]; gene KDM6A, TGFb/PDGF+CRV vs TGFb/PDGF+Vehicle): 0.785 | log2FoldChange ([1]; gene LAMA4, TGFb/PDGF+CRV vs TGFb/PDGF+Vehicle): −0.939 | log2FoldChange ([1]; gene LIMS3, TGFb/PDGF+CRV vs TGFb/PDGF+Vehicle): −1.705 | log2FoldChange ([1]; gene LOXL2, TGFb/PDGF+CRV vs TGFb/PDGF+Vehicle): −0.948 | fold change in RNA ([1]; gene LOXL2): −1.9 fold | log2FoldChange ([1]; gene MCAM, TGFb/PDGF+CRV vs TGFb/PDGF+Vehicle): −0.841 | log2FoldChange ([1]; gene MEF2C, TGFb/PDGF+CRV vs TGFb/PDGF+Vehicle): −1.013 | log2FoldChange ([1]; gene MEG3, TGFb/PDGF+CRV vs TGFb/PDGF+Vehicle): −0.853 | log2FoldChange ([1]; gene MRC2, TGFb/PDGF+CRV vs TGFb/PDGF+Vehicle): −0.773 | log2FoldChange ([1]; gene MROH2A, TGFb/PDGF+CRV vs TGFb/PDGF+Vehicle): 3.641 | log2FoldChange ([1]; gene MT-CO1, TGFb/PDGF+CRV vs TGFb/PDGF+Vehicle): −0.85 | log2FoldChange ([1]; gene NID2, TGFb/PDGF+CRV vs TGFb/PDGF+Vehicle): −0.755 | log2FoldChange ([1]; gene NXPH4, TGFb/PDGF+CRV vs TGFb/PDGF+Vehicle): −0.808 | log2FoldChange ([1]; gene PAN2, TGFb/PDGF+CRV vs TGFb/PDGF+Vehicle): 1.019 | log2FoldChange ([1]; gene PANK3, TGFb/PDGF+CRV vs TGFb/PDGF+Vehicle): 0.687 | log2FoldChange ([1]; gene PCDH12, TGFb/PDGF+CRV vs TGFb/PDGF+Vehicle): −0.741 | log2FoldChange ([1]; gene PHF8, TGFb/PDGF+CRV vs TGFb/PDGF+Vehicle): 0.709 | log2FoldChange ([1]; gene PKLR, TGFb/PDGF+CRV vs TGFb/PDGF+Vehicle): 2.127 | log2FoldChange ([1]; gene PLXNA2, TGFb/PDGF+CRV vs TGFb/PDGF+Vehicle): 1.326 | log2FoldChange ([1]; gene POU6F1, TGFb/PDGF+CRV vs TGFb/PDGF+Vehicle): −1.716 | log2FoldChange ([1]; gene PPP1R16B, TGFb/PDGF+CRV vs TGFb/PDGF+Vehicle): −1.016 | log2FoldChange ([1]; gene RALGPS2, TGFb/PDGF+CRV vs TGFb/PDGF+Vehicle): 0.836 | log2FoldChange ([1]; gene RBMXL1, TGFb/PDGF+CRV vs TGFb/PDGF+Vehicle): −8.265 | log2FoldChange ([1]; gene RCCD1, TGFb/PDGF+CRV vs TGFb/PDGF+Vehicle): −1.838 | fold change in RNA ([1]; gene RCCD1): −3.6 fold | log2FoldChange ([1]; gene RHCG, TGFb/PDGF+CRV vs TGFb/PDGF+Vehicle): −0.927 | log2FoldChange ([1]; gene RPS7P1, TGFb/PDGF+CRV vs TGFb/PDGF+Vehicle): 2.668 | log2FoldChange ([1]; gene SLC4A8, TGFb/PDGF+CRV vs TGFb/PDGF+Vehicle): −2.641 | log2FoldChange ([1]; gene SLC26A6, TGFb/PDGF+CRV vs TGFb/PDGF+Vehicle): −0.692 | log2FoldChange ([1]; gene SLC39A5, TGFb/PDGF+CRV vs TGFb/PDGF+Vehicle): 1.92 | log2FoldChange ([1]; gene SMC5, TGFb/PDGF+CRV vs TGFb/PDGF+Vehicle): 0.799 | log2FoldChange ([1]; gene STRA6, TGFb/PDGF+CRV vs TGFb/PDGF+Vehicle): −1.639 | fold change in RNA ([1]; gene STRA6): −3.1 fold | log2FoldChange ([1]; gene TDO2, TGFb/PDGF+CRV vs TGFb/PDGF+Vehicle): 0.916 | log2FoldChange ([1]; gene TMEM70, TGFb/PDGF+CRV vs TGFb/PDGF+Vehicle): 1.062 | log2FoldChange ([1]; gene TTYH2, TGFb/PDGF+CRV vs TGFb/PDGF+Vehicle): −1.114 | fold change in RNA ([1]; gene UBD/FAT10): −2.0 fold | log2FoldChange ([1]; gene UBD, TGFb/PDGF+CRV vs TGFb/PDGF+Vehicle): −1.035 | log2FoldChange ([1]; gene VWA8, TGFb/PDGF+CRV vs TGFb/PDGF+Vehicle): 1.514 | log2FoldChange ([1]; gene ZC3H10, TGFb/PDGF+CRV vs TGFb/PDGF+Vehicle): 1.022 | log2FoldChange ([1]; gene ZDHHC20, TGFb/PDGF+CRV vs TGFb/PDGF+Vehicle): 1.207 | log2FoldChange ([1]; gene ZNF461, TGFb/PDGF+CRV vs TGFb/PDGF+Vehicle): 1.391 | hepatocellular carcinoma tumor burden [2]: can reduce | liver fibrosis arising from non-alcoholic steatohepatitis [2]: can reduce
